# Measured values from publication PMC9699089 (Pathogens, 2022).
# What was measured:
# [1] = tested on: FdxT (DNA, hairpin, hexaethyleneglycol linker between position 10 and 11) TATAGCTATATATAGCTATA; assay: FRET melting; details: 10 mM KCl, 90 mM LiCl; 10 mM lithium cacodylate pH 7.2; 0.2 µM oligonucleotide, 0.5 µM compound
# [2] = tested on: Trypanosoma 9 and 11 chromosomic sequence FTrypBT (FEBR1T) G-quadruplex; assay: FRET melting assay, FtrypBT; assay type: binding, Trypanosoma brucei brucei; details: tested at 0.5 μM, oligonucleotide 0.2 μM, K+ conditions
# Method: These were performed with dual-labeled oligonucleotides mimicking the Plasmodium telomeric sequences FPf1T [FAM-5′(GGGTTTA)3-GGG3′-TAMRA] and FPf8T [FAM-5′(GGGTTCA)3GGG3′-TAMRA], the Trypanosoma 9 and 11 chromosomic sequence FTrypBT (also named FEBR1T) [FAM-5′[…]3′-TAMRA], the human telomeric sequence F21T [FAM-(GGGTTA)3-GGG3′-TAMRA] and the human duplex sequence FdxT [FAM5′-[…]-hexaethyleneglycol-[…]3′-TAMRA] [27, 31, 47]. The oligonucleotides were pre-folded in 10 mM lithium cacodylate buffer (pH 7.2), with 10 mM KCl and 90 mM LiCl (K^+ condition). The FAM emissions were recorded at 516 nm using a 492-nm excitation wavelength in the absence and presence of a single compound as a function of temperature (25 to 95 °C) in 96-well microplates using a Stratagene MX3000P real-time PCR device at a rate of 1 °C∙min-1. Data were normalized between 0 and 1, and the required temperature for half-denaturation of oligonucleotides corresponding to the emission value of 0.5 was taken as the Tm. Each experiment was performed in duplicate with 0.2 µM of labeled oligonucleotide and 2 µM of compound under K^+ condition. For each compound, three independent experiments were carried out.
# [3] = tested on: human telomeric sequence F21T G-quadruplex; assay: FRET melting assay, F21T; assay type: binding; details: tested at 0.5 μM, oligonucleotide 0.2 μM, K+ conditions
# [4] = tested on: F21T (DNA, G4) GGGTTAGGGTTAGGGTTAGGG; assay: FRET melting; details: 10 mM KCl, 90 mM LiCl; 10 mM lithium cacodylate pH 7.2; 0.2 µM oligonucleotide, 0.5 µM compound
# [5] = tested on: Plasmodium telomeric sequence FPf8T G-quadruplex; assay: FRET melting assay, FPf8T; assay type: binding, Plasmodium falciparum; details: tested at 0.5 μM, oligonucleotide 0.2 μM, K+ conditions
# [6] = tested on: human duplex sequence FdxT; assay: FRET melting assay, duplex control FdxT; assay type: binding; details: tested at 0.5 μM, oligonucleotide 0.2 μM, K+ conditions
# [7] = tested on: Plasmodium telomeric sequence FPf1T G-quadruplex; assay: FRET melting assay, FPf1T; assay type: binding, Plasmodium falciparum; details: tested at 0.5 μM, oligonucleotide 0.2 μM, K+ conditions
smiles,measurement,setting,value
C[n+]1cc(NC(=O)c2ccc3ccc4ccc(C(=O)Nc5cc6ccccc6[n+](C)c5)nc4c3n2)cc2ccccc21 [PhenDC3],ΔTm,[1],0.1 ± 0.2 °C
same,ΔTm FtrypBT,[2],19.2 °C
same,ΔTm F21T,[3],26.3 °C
same,ΔTm,[4],26.3 ± 0.1 °C
same,ΔTm FPf8T,[5],24.7 °C
same,ΔTm FdxT,[6],0.1 °C
same,ΔTm FPf1T,[7],24.6 °C
